Experimental data: the supplement of paper PMC6045584
± gives the standard deviation of the averaged measurements.

Compound: CCCS(=O)(=O)Nc1ccc(F)c(C(=O)c2c[nH]c3ncc(Cl)cc23)c1F [PLX-4720]
Assay: surviving fraction relative to DMSO-only wells; higher = less growth inhibition
Conditions: 0.5 nM; exposure time: 5 days
Summary of the method: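 After seeding at 250–500 cells per well in 384-well plates and a 24-hour wait, log-phase tumour cell lines were exposed without interruption for five days to inhibitors at 0.5, 1, 5, 10, 50, 100, 500 and 1000 nM. CellTiter-Glo luminescence was recorded after 10 minutes at room temperature. Viability is reported as surviving fraction, the luminescence normalised to the median of DMSO-only wells.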

Row | Test System | surviving fraction
1 | 22RV1 PROSTATE | 1 ± 0.011
2 | 93VU HEADNECK | 0.755 ± 0.071
3 | 143B BONE | 0.979 ± 0.03
4 | A549 LUNG | 0.904 ± 0.027
5 | ASKA SYNOVIAL | 0.402 ± 0.04
6 | BT20 BREAST | 0.783 ± 0.2
7 | BT549 BREAST | 0.855 ± 0.11
8 | CADOES1 SOFT TISSUE | 0.944 ± 0.025
9 | CAL51 BREAST | 0.926 ± 0.04
10 | CAL120 BREAST | 0.852 ± 0.027
11 | CASKI CERVIX | 0.795 ± 0.091
12 | CHLA90 AUTONOMIC GANGLIA | 0.333 ± 0.039
13 | CME SYNOVIAL | 0.101 ± 0.0087
14 | COLO320DM LARGE INTESTINE | 0.376 ± 0.022
15 | DU4475 BREAST | 0.783 ± 0.23
16 | H23 LUNG | 0.873 ± 0.037
17 | HCC38 BREAST | 0.812 ± 0.15
18 | HCC70 BREAST | 1.02 ± 0.06
19 | HCC78 LUNG | 0.318 ± 0.06
20 | HCC202 BREAST | 0.964 ± 0.1
21 | HCC1806 BREAST | 0.727 ± 0.073

Row | Test System | surviving fraction
22 | HCC1954 BREAST | 0.487 ± 0.0099
23 | HCT15 LARGE INTESTINE | 0.419 ± 0.018
24 | HELA CERVIX | 0.96 ± 0.039
25 | HMLE3 BREAST | 0.225 ± 0.027
26 | HMT3552 BREAST | 1.04
27 | HOS BONE | 0.92 ± 0.012
28 | HOSMNG BONE | 0.959 ± 0.026
29 | HS57T BREAST | 0.9 ± 0.06
30 | HS578T BREAST | 0.925 ± 0.054
31 | HSSYII SYNOVIAL | 0.231 ± 0.018
32 | HT1080 SOFT TISSUE | 0.981 ± 0.049
33 | HU09 BONE | 0.863 ± 0.032
34 | JIMT1 BREAST | 0.857 ± 0.025
35 | JURKAT HAEMATOPOIETIC AND LYMPHOID TISSUE | 0.9917 ± 0.0087
36 | KPD BONE | 0.917 ± 0.082
37 | LM7 BONE | 0.725 ± 0.067
38 | MCF7 BREAST | 0.746 ± 0.042
39 | MDAMB134 BREAST | 0.624 ± 0.088
40 | MDAMB157 BREAST | 0.848 ± 0.032
41 | MDAMB231 BREAST | 0.936 ± 0.018

Same assay, conditions: 1 nM; exposure time: 5 days

Row | Test System | surviving fraction
42 | 22RV1 PROSTATE | 0.966 ± 0.076
43 | 93VU HEADNECK | 0.813 ± 0.082
44 | 143B BONE | 0.972 ± 0.023
45 | A549 LUNG | 0.928 ± 0.017
46 | ASKA SYNOVIAL | 0.905 ± 0.07
47 | BT20 BREAST | 0.849 ± 0.16
48 | BT549 BREAST | 0.839 ± 0.092
49 | CADOES1 SOFT TISSUE | 0.935 ± 0.063
50 | CAL51 BREAST | 0.897 ± 0.026
51 | CAL120 BREAST | 0.899 ± 0.051
52 | CASKI CERVIX | 0.809 ± 0.029
53 | CHLA90 AUTONOMIC GANGLIA | 0.922 ± 0.041
54 | CME SYNOVIAL | 0.904 ± 0.082
55 | COLO320DM LARGE INTESTINE | 0.996 ± 0.12
56 | DU4475 BREAST | 0.699 ± 0.14
57 | H23 LUNG | 0.943 ± 0.057
58 | HCC38 BREAST | 0.836 ± 0.19
59 | HCC70 BREAST | 0.984 ± 0.14
60 | HCC78 LUNG | 1.01 ± 0.17
61 | HCC202 BREAST | 1.22 ± 0.12
62 | HCC1806 BREAST | 0.808 ± 0.067

Row | Test System | surviving fraction
63 | HCC1954 BREAST | 0.487 ± 0.028
64 | HCT15 LARGE INTESTINE | 0.875 ± 0.043
65 | HELA CERVIX | 0.947 ± 0.051
66 | HMLE3 BREAST | 0.8523 ± 0.007
67 | HMT3552 BREAST | 0.993
68 | HOS BONE | 0.928 ± 0.014
69 | HOSMNG BONE | 0.962 ± 0.025
70 | HS57T BREAST | 0.898 ± 0.057
71 | HS578T BREAST | 0.912 ± 0.021
72 | HSSYII SYNOVIAL | 0.844 ± 0.038
73 | HT1080 SOFT TISSUE | 0.994 ± 0.073
74 | HU09 BONE | 0.959 ± 0.13
75 | JIMT1 BREAST | 0.862 ± 0.042
76 | JURKAT HAEMATOPOIETIC AND LYMPHOID TISSUE | 0.964 ± 0.02
77 | KPD BONE | 0.916 ± 0.017
78 | LM7 BONE | 0.715 ± 0.026
79 | MCF7 BREAST | 0.873 ± 0.059
80 | MDAMB134 BREAST | 0.701 ± 0.076
81 | MDAMB157 BREAST | 0.962 ± 0.069
82 | MDAMB231 BREAST | 0.964 ± 0.017

Same assay, conditions: 5 nM; exposure time: 5 days

Row | Test System | surviving fraction
83 | 22RV1 PROSTATE | 0.971 ± 0.032
84 | 93VU HEADNECK | 0.798 ± 0.044
85 | 143B BONE | 0.99 ± 0.021
86 | A549 LUNG | 0.922 ± 0.017
87 | ASKA SYNOVIAL | 0.923 ± 0.041
88 | BT20 BREAST | 0.774 ± 0.065
89 | BT549 BREAST | 0.857 ± 0.092
90 | CADOES1 SOFT TISSUE | 0.915 ± 0.051
91 | CAL51 BREAST | 0.985 ± 0.045
92 | CAL120 BREAST | 0.904 ± 0.04
93 | CASKI CERVIX | 0.847 ± 0.045
94 | CHLA90 AUTONOMIC GANGLIA | 0.753 ± 0.041
95 | CME SYNOVIAL | 0.732 ± 0.072
96 | COLO320DM LARGE INTESTINE | 0.921 ± 0.08
97 | DU4475 BREAST | 0.791 ± 0.16
98 | H23 LUNG | 0.93 ± 0.055
99 | HCC38 BREAST | 0.893 ± 0.14
100 | HCC70 BREAST | 1.04 ± 0.034
101 | HCC78 LUNG | 0.964 ± 0.06
102 | HCC202 BREAST | 1.08 ± 0.17
103 | HCC1806 BREAST | 0.861 ± 0.069

Row | Test System | surviving fraction
104 | HCC1954 BREAST | 0.455 ± 0.038
105 | HCT15 LARGE INTESTINE | 0.755 ± 0.072
106 | HELA CERVIX | 0.957 ± 0.069
107 | HMLE3 BREAST | 0.721 ± 0.039
108 | HMT3552 BREAST | 1.01
109 | HOS BONE | 0.935 ± 0.017
110 | HOSMNG BONE | 1 ± 0.061
111 | HS57T BREAST | 0.947 ± 0.069
112 | HS578T BREAST | 0.908 ± 0.1
113 | HSSYII SYNOVIAL | 0.694 ± 0.065
114 | HT1080 SOFT TISSUE | 0.988 ± 0.025
115 | HU09 BONE | 0.873 ± 0.013
116 | JIMT1 BREAST | 0.894 ± 0.05
117 | JURKAT HAEMATOPOIETIC AND LYMPHOID TISSUE | 0.935 ± 0.026
118 | KPD BONE | 0.973 ± 0.024
119 | LM7 BONE | 0.809 ± 0.033
120 | MCF7 BREAST | 0.831 ± 0.033
121 | MDAMB134 BREAST | 0.715 ± 0.014
122 | MDAMB157 BREAST | 0.958 ± 0.079
123 | MDAMB231 BREAST | 0.969 ± 0.024

Same assay, conditions: 10 nM; exposure time: 5 days

Row | Test System | surviving fraction
124 | 22RV1 PROSTATE | 0.958 ± 0.036
125 | 93VU HEADNECK | 0.877 ± 0.024
126 | 143B BONE | 0.968
127 | A549 LUNG | 0.922 ± 0.03
128 | ASKA SYNOVIAL | 1 ± 0.096
129 | BT20 BREAST | 0.803 ± 0.056
130 | BT549 BREAST | 0.902 ± 0.074
131 | CADOES1 SOFT TISSUE | 0.933 ± 0.075
132 | CAL51 BREAST | 0.939 ± 0.038
133 | CAL120 BREAST | 0.881 ± 0.037
134 | CASKI CERVIX | 0.848 ± 0.033
135 | CHLA90 AUTONOMIC GANGLIA | 0.929 ± 0.044
136 | CME SYNOVIAL | 0.945 ± 0.23
137 | COLO320DM LARGE INTESTINE | 1.07 ± 0.11
138 | DU4475 BREAST | 0.741 ± 0.1
139 | H23 LUNG | 0.968 ± 0.068
140 | HCC38 BREAST | 0.911 ± 0.17
141 | HCC70 BREAST | 1.02 ± 0.034
142 | HCC78 LUNG | 1.05 ± 0.3
143 | HCC202 BREAST | 1.09 ± 0.046
144 | HCC1806 BREAST | 0.879 ± 0.042

Row | Test System | surviving fraction
145 | HCC1954 BREAST | 0.452 ± 0.053
146 | HCT15 LARGE INTESTINE | 0.866 ± 0.029
147 | HELA CERVIX | 0.953 ± 0.022
148 | HMLE3 BREAST | 0.851 ± 0.049
149 | HMT3552 BREAST | 0.978
150 | HOS BONE | 0.964 ± 0.0053
151 | HOSMNG BONE | 0.985 ± 0.041
152 | HS57T BREAST | 0.964 ± 0.065
153 | HS578T BREAST | 0.809 ± 0.16
154 | HSSYII SYNOVIAL | 0.838 ± 0.03
155 | HT1080 SOFT TISSUE | 0.989 ± 0.031
156 | HU09 BONE | 0.941 ± 0.071
157 | JIMT1 BREAST | 0.887 ± 0.046
158 | JURKAT HAEMATOPOIETIC AND LYMPHOID TISSUE | 0.972 ± 0.04
159 | KPD BONE | 0.982 ± 0.011
160 | LM7 BONE | 0.825 ± 0.03
161 | MCF7 BREAST | 0.83 ± 0.035
162 | MDAMB134 BREAST | 0.78 ± 0.25
163 | MDAMB157 BREAST | 1 ± 0.093
164 | MDAMB231 BREAST | 0.9755 ± 0.0065
